Assays:
[1] = tested on: K562 (FLT3 negative expression, positive expression of BCR-ABL fusion protein); assay: In vitro growth inhibition (GI50), K562; type: cell-based; details: Homo sapiens, Cell lines of leukemia, read-out: GI 50 K562 BCR-ABL
[2] = tested on: NCI-H460 (KRAS G61H mutant type); assay: In vitro growth inhibition (GI50), NCI-H460; type: cell-based; details: Homo sapiens
Source text: Tumor cell line is an effective cell model for studying the inhibition of tumor cell growth or proliferation in vitro. In the present invention, a representative tumor cell line was selected to determine the cell growth inhibition activity of the present compound. All cell lines used were from ATCC, DSMZ, and the Cell Bank of the Chinese Academy of Sciences. Cell culture conditions and methods were in accordance with the requirements of each cell line. Cells were subcultured in vitro for no more than 3 passages each time, and as required, single-clone purification and identification of cell lines could be carried out.
The cell culture media used were RPMI1640 (Gibco), MEM (Gibco), McCOY'S5A (Gibco), and IMDM (Gibco). The complete medium was prepared by supplement with 5˜20% fetal calf serum (Gibco), 1% double-antibiotics (10000 units/mL penicillin and 10000 units/mL), 2 mM glutamine or 1 mM sodium pyruvate, respectively.
Human large cell lung cancer cell NCI-H460 (KRAS […] mutant type, ATCC), human non-small cell lung cancer cell line H1299 (NRAS Q61K mutant type, ATCC), human melanoma cell line A375 (BRAF V600E mutant type, Shanghai Cell Bank of Chinese Academy of Sciences), human colon cancer cell line HCT116 (KRAS G13D mutant type, Shanghai Cell Bank, Chinese Academy of Sciences) were cultured in a complete medium of 1×RPMI1640 (10% FBS), respectively. Human non-small cell lung cancer cells A549 (KRAS G12S mutant type, Shanghai Cell Bank, Chinese Academy of Sciences) were cultured in a complete medium of 1× Ham's supplemented with 10% FBS, 1% double antibody, and 2 mM glutamine.
Adherent cells were digested with 0.25% pancreatin-EDTA (Gibco). The suspension cells were collected by centrifugation. The supernatant was discarded and the cell pellet was resuspended and counted. Different cell concentrations (5˜10×10^4 cells/mL) were prepared according to the growth cycle of each cell line and then seeded on a 96-well plate (Corning), 100 μL/well. The cells were incubated overnight at 37° C., 5% CO2. The compounds were added to the cells on the second day with 2 wells in parallel. The final concentration of organic solvent shall not exceed 1%. The cells were continually incubated for 3 to 5 days, and then subjected to MTT assay.
The compound of the present invention and the control compound were dissolved in DMSO (Sigma) respectively, with the purity of more than 98%. The compound was stored in a concentration of 10 mM at −20° C. and diluted to 2- or 10-fold series prior to use.
Dojindo CCK8 reagent kit was used as MTT assay. THERMO […] FC meter was used as microplate reader.
For adherent cells, culture medium was removed and immediately replaced with the fresh prepared medium which contains 10% CCK8 reagent (100 μL/well). For the suspension cells, CCK8 was directly added to 10% of the final concentration. The cells were continually incubated for 1˜4 h. When a dark yellow color could be observed in the solvent control wells, the absorbance value at OD450 nm was measured and the cell growth rate was calculated according to the following formula: Cell Growth Rate (%)=100*(T−T0)/(C−T0) T=optical density of drug treatment cell well—optical density of blank control well; T0=optical density of cell well before drug treatment—optical density of blank control well; C=optical density of cell well of solvent control group—optical density of blank control well. The concentration value of 50% inhibition of cell growth (GI50) was calculated according to the drug concentration and cell growth rate curve. The experiment was independently repeated 1˜3 times, and subject to biological statistical analysis. 4. Experimental Results
Tumor cell growth inhibition test was performed by selecting representative compounds (compounds 4, 11, 12, 16, 27, 68, 71, 77, 79, 89 and 116 of the present invention). The initial concentration of the compound was 5,000 nM, then it was serially diluted by 2-fold or 10-fold to 0.01 nM. […]

Row | SMILES | GI50 [1] [nM] | GI50 [2] [nM]
1 | COCCOc1ccc2c(c1)ncn2-c1ccc(NC(=O)Nc2cc(C(C)(C)C)n[nH]2)cc1 [Compound 77, 1-(5-tert-butyl-2H-pyrazol-3-yl)-3-{4-[5-(2-methoxyl-ethoxyl)-benzimidazol-1-yl]-phenyl}-urea] | > 1000 | > 2500
2 | CC(C)(C)c1cc(NC(=O)Nc2ccc(-n3cnc4ccccc43)cc2)[nH]n1 [Compound 68, 1-(4-benzimidazol-1-yl-phenyl)-3-(5-tert-butyl-2H-pyrazol-3-yl)-urea] | > 1000 | > 2500
3 | COc1ccc2c(c1)ncn2-c1ccc(NC(=O)Nc2cc(C(C)(C)C)n[nH]2)cc1 [Compound 71, 1-(5-tert-butyl-2H-pyrazol-3-yl)-3-[4-(5-methoxyl-benzimidazol-1-yl)-phenyl]-urea] | > 1000 | > 2500
4 | CC(C)(C)c1cc(NC(=O)Nc2ccc(-n3cnc4cc(OCCN5CCOCC5)ccc43)cc2)no1 [Compound 16, 1-(5-tert-butyl-isoxazol-3-yl)-3-{4-[5-(2-morpholin-4-yl-ethoxyl)-benzimidazol-1-yl]-phenyl}-urea] | > 1000 | > 2500
5 | CC(C)(C)c1cc(N)n(C(=O)Nc2ccc(-n3cnc4ccccc43)cc2)n1 [Compound 116, 5-amino-3-tert-butyl-pyrazol-1-carboxylic acid (4-benzimidazol-1-yl-phenyl)-amide] | > 1000 | > 2500
6 | CC(C)(C)c1cc(NC(=O)Nc2ccc(-n3cnc4cc(OCCO)ccc43)cc2)no1 [Compound 11, 1-(5-tert-butyl-isoxazol-3-yl)-3-{4-[5-(2-hydroxy-ethoxyl)-benzimidazol-1-yl]-phenyl]-urea] | > 1000 | > 2500
7 | CC(C)(C)c1cc(NC(=O)Nc2ccc(-n3cnc4ccc(OCCN5CCOCC5)cc43)cc2)no1 [Compound 27, 1-(5-tert-butyl-isoxazol-3-yl)-3-{4-[6-(2morpholin-4-yl-ethoxyl)-benzimidazol-1-yl]-phenyl}-urea] | > 1000 | > 2500

Other lines, results leading:

Row | GI50 [1] [nM] | GI50 [2] [nM] | SMILES
8 | > 1000 | > 2500 | CC(C)(C)c1cc(NC(=O)Nc2ccc(-n3cnc4cc(OCCO)ccc43)cc2)[nH]n1 [Compound 79, 1-(5-tert-butyl-2H-pyrazol-3-yl)-3-{4-[5-(2-hydroxy-ethoxyl)-benzimidazol-1-yl]-phenyl]urea]
9 | > 1000 | > 2500 | CC(C)(C)c1cc(NC(=O)Nc2ccc(-n3cnc4cc(OCCN5CCOCC5)ccc43)cc2)[nH]n1 [Compound 89, 1-(5-tert-butyl-2H-pyrazol-3-yl)-3-{4-[5-(2-morpholin-4-yl-ethoxyl)-benzimidazol-1-yl]-phenyl}-urea]
10 | 100 to 1000 | > 2500 | CC(C)(C)c1cc(NC(=O)Nc2ccc(-n3cnc4cc(O)ccc43)cc2)no1 [Compound 4, 1-(5-tert-butyl-isoxazol-3-yl)-3-[4-(5-hydroxy-benzimidazol-1-yl)-phenyl]-urea]

— patent US10647680B2, “Urea compound, preparation method therefor and medical use thereof” (Ancureall Pharmaceutical (Shanghai) Co., Ltd., priority 2016, dated 2020)
